The target in the assay is T1, Human FXRα Ligand Binding Domain (Homo sapiens, UniProt Q96RI1).
T1 construct: polyhistidine (pRSET-A vector leader) (N); made in house; host or cells: E. coli BL21 (DE3), pRSET-A vector
T1 sequence (Q96RI1 237-472 isoform Q96RI1-2): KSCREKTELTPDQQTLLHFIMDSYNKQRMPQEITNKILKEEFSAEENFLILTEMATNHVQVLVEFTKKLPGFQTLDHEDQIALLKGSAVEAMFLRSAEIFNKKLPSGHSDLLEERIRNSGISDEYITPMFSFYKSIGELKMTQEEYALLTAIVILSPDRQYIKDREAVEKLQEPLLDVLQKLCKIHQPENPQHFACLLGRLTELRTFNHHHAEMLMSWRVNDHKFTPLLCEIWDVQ
The experiment in a line: FXR Cofactor Binding Assay (ligand mediated SRC-1 cofactor peptide interaction, time resolved fluorescence). In kind it is biochemical. Conditions: FXRα LBD / SRC-1 (LCD2, 676-700) peptide, TRF; read-out: Activity (pEC50) (converted). An excerpt: Determination of a ligand mediated cofactor peptide interaction to quantify ligand binding to the nuclear receptor Farnesoid X Receptor (FXR). The method measures the ability of putative ligands to modulate the interaction between the purified bacterial expressed FXRα ligand binding domain (LBD) and a synthetic biotinylated peptide based on residues 676-700 of steroid receptor coactivator-1 (SRC-1) (LXXLL-containing domain-2 where L is the amino acid leucine and X indicates any other amino acid (LCD2), 676-700). The sequence of the SRC-1 peptide used is as published in Iannone, M. A., et al., 2001 Cytometry 44:326-337 where the N-terminus was biotinylated (B) and the C-terminus was amidated. Detection of the associated complex was measured by time resolved fluorescence (TRF). The purified LBD of FXR was labeled with biotin, then mixed with stoichiometric amounts of allophycocyanin (APC) labeled streptavidin (Molecular Probes). The biotinylated peptide was then mixed with a ½ stoichiometric amount of europium labeled streptavidin (Wallac Inc). Each was then blocked with a 5 fold excess of biotin and allowed to equilibrate for 15 min. Equimolar amounts of receptor and peptide were mixed together and were allowed to equilibrate for at least 30 min prior to the addition to either a variable or constant concentrations of the sample for which the affinity is to be determined. After equilibration, the time-resolved fluorescent signal was quantitated using a fluorescent plate reader. The affinity of the test compound was estimated from a plot of fluorescence versus concentration of test compound added.
Ligands that promote the complex formation induce a concentration-dependent increase in time-resolved fluorescent signal.
Human FXRα Ligand Binding Domain (FXRα LBD) was expressed in E. coli strain BL21 (DE3) as an amino-terminal polyhistidine tagged fusion protein. Expression was under the control of an isopropyl-β-D-thiogalactopyranoside (IPTG) inducible T7 promoter. DNA encoding this recombinant protein is subcloned into the pRSET-A expression vector (Invitrogen). The coding sequence of Human FXRα LBD was derived from Genbank accession number U 68233 (amino acids 237 to 472).
Ten-liter fermentation batches were grown in Rich PO4 media with 0.1 mg/mL Ampicillin at 25° C. for 12 hours, cooled to 9° C. and held at that temperature for 36 hours to a density of OD600=14. At this cell density, 0.25 mM IPTG is added and induction proceeded for 24 hours at 9° C., to a final OD600=16. Cells are harvested by centrifugation (20 minutes, 3500×gravity, 4° C.), and concentrated cell slurries were stored in phosphate buffered saline (PBS) at […].
Routinely, 30-40 g cell paste (equivalent to 2-3 liters of the fermentation batch) was resuspended in 200-250 mL Tris buffered saline (TBS), pH 7.2 (25 mM Tris-hydroxymethylamino methane (Tris), 150 mM sodium chloride). Cells were lysed by passing 3 times through a French Press and cell debris was removed by centrifugation (30 minutes, 20,000×gravity, 4° C.). The cleared supernatant was filtered through course pre-filters, and TBS, pH 7.2, 500 mM imidazole was added to obtain a final imidazole concentration of 50 mM. This lysate was loaded onto a column (6×8 cm) packed with Sepharose [Ni^++ charged] Chelation resin (Pharmacia) and pre-equilibrated with TBS pH 7.2/50 mM imidazole. After washing to baseline absorbance with equilibration buffer, the column was washed with one column volume of TBS pH 7.2 containing 90 mM imidazole. FXRα LBD was eluted directly with 365 mM imidazole. Column fractions were pooled and dialyzed against TBS, pH 7.2, containing 0.5 mM EDTA and 5 mM DTT. The dialyzed protein sample was concentrated using Centri-prep 10 K (Amicon) and subjected to size exclusion, using a column (3×90 cm) packed with Sepharose S-75 resin (Pharmacia) pre-equilibrated with TBS, pH 7.2, containing 0.5 mM ethylene diamine tetraacetic acid (EDTA) and 5 mM dithiothreitol (DTT).
On to `Cc1cccc(C)c1OCc1noc(C(C)C)c1COc1ccc2c(ccn2Cc2cccc(C(=O)O)c2)c1` [Example 1, 3-{[5-({[3-{[(2,6-dimethylphenyl)oxy]methyl}-5-(1-methylethyl)-4-isoxazolyl]methyl}oxy)-1H-indol-1-yl]methyl}benzoic acid], for which the EC50 is 102 to 1000 nM. For `CC(C)c1onc(COc2c(F)cc(F)cc2F)c1COc1ccc2c(ccn2Cc2cccc(C(=O)O)c2)c1` [Example 2, 3-[(5-{[(5-(1-methylethyl)-3-{[(2,4,6-trifluorophenyl)oxy]methyl}-4-isoxazolyl)methyl]oxy}-1H-indol-1-yl)methyl]benzoic acid], the EC50 was 1020 to 10000 nM. `CC(C)c1onc(COc2c(Cl)cc(Cl)cc2Cl)c1COc1ccc2c(ccn2Cc2cccc(C(=O)O)c2)c1` [Example 3, 3-[(5-{[(5-(1-methylethyl)-3-{[(2,4,6-trichlorophenyl)oxy]methyl}-4-isoxazolyl)methyl]oxy}-1H-indol-1-yl)methyl]benzoic acid]: the EC50 is 102 to 1000 nM.

On to `CC(C)c1onc(CNc2c(Cl)cccc2Cl)c1COc1ccc2c(ccn2Cc2cccc(C(=O)O)c2)c1` [Example 4, 3-{[5-({[3-{[(2,6-dichlorophenyl)amino]methyl}-5-(1-methylethyl)-4-isoxazolyl]methyl}oxy)-1H-indol-1-yl]methyl}benzoic acid], for which the EC50 is 1020 to 10000 nM.

For `CC(C)c1onc(COc2c(Br)cccc2Br)c1COc1ccc2c(ccn2Cc2cccc(C(=O)O)c2)c1` [Example 5, 3-{[5-({[3-{[(2,6-dibromophenyl)oxy]methyl}-5-(1-methylethyl)-4-isoxazolyl]methyl}oxy)-1H-indol-1-yl]methyl}benzoic acid], the EC50 is 102 to 1000 nM. With `CC(C)c1onc(CSc2nccs2)c1COc1ccc2c(ccn2Cc2cccc(C(=O)O)c2)c1` [Example 6, 3-({5-[({5-(1-methylethyl)-3-[(1,3-thiazol-2-ylthio)methyl]-4-isoxazolyl}methyl)oxy]-1H-indol-1-yl}methyl)benzoic acid], the EC50 is 1020 to 10000 nM.

As for `CC(C)c1onc(-c2ccccc2OC(F)(F)F)c1COc1ccc2c(ccn2Cc2cccc(C(=O)O)c2)c1` [Example 7, 3-[(5-{[(5-(1-Methylethyl)-3-{2-[(trifluoromethyl)oxy]phenyl}-4-isoxazolyl)methyl]oxy}-1H-indol-1-yl)methyl]benzoic acid], the EC50 was 102 to 1000 nM.

In the case of `CC(C)c1onc(-c2c(Cl)cncc2Cl)c1COc1ccc2ccn(Cc3cccc(C(=O)O)c3)c2c1` [Example 8, 3-{[6-({[3-(3,5-dichloro-4-pyridinyl)-5-(1-methylethyl)-4-isoxazolyl]methyl}oxy)-1H-indol-1-yl]methyl}benzoic acid], the EC50 was 102 to 1000 nM. As for `CC(C)c1onc(-c2c(Cl)cccc2Cl)c1COc1ccc2cc(-c3ccc(C(=O)O)cc3)sc2c1` [Example 9, 4-[6-({[3-(2,6-Dichlorophenyl)-5-(1-methylethyl)-4-isoxazolyl]methyl}oxy)-1-benzothien-2-yl]benzoic acid], the figure is 102 to 1000 nM. `CC(C)c1onc(-c2c(Cl)cccc2Cl)c1COc1ccc2c(ccn2C(=O)c2cccc(C(=O)O)c2)c1` [Example 10, 3-{[5-({[3-(2,6-Dichlorophenyl)-5-(1-methylethyl)-4-isoxazoly]methyl}oxy)-1H-indol-1-yl]carbonyl}benzoic acid]: the EC50 was 102 to 1000 nM. As to `CC(C)c1onc(-c2c(Cl)cccc2Cl)c1COc1ccc2nc(-c3cccc(C(=O)O)c3)sc2c1` [Example 11, 3-[6-({[3-(2,6-Dichlorophenyl)-5-(1-methylethyl)-4-isoxazolyl]methyl}oxy)-1,3-benzothiazol-2-yl]benzoic acid], the EC50 was 102 to 1000 nM. Next, `CC(C)c1onc(-c2c(Cl)cccc2Cl)c1COc1ccc2c(ccn2Cc2cccc(-c3nnn[nH]3)c2)c1` [Example 12, 5-({[3-(2,6-Dichlorophenyl)-5-(1-methylethyl)-4-isoxazolyl]methyl}oxy)-1-{[3-(1H-tetrazol-5-yl)phenyl]methyl}-1H-indole]: 102 to 1000 nM.

As for `CC(C)c1onc(-c2c(Cl)cccc2Cl)c1COc1ccc2c(ccn2Cc2ccc(C(=O)O)cc2)c1` [Example 13, 4-{[5-({[3-(2,6-Dichlorophenyl)-5-(1-methylethyl)-4-isoxazolyl]methyl}oxy)-1H-indol-1-yl]methyl}benzoic acid], the EC50 is 102 to 1000 nM. Next, `CC(C)c1onc(COc2c(Cl)cc(F)cc2Cl)c1COc1ccc2c(ccn2Cc2cccc(C(=O)O)c2)c1` [Example 14, 3-{[5-({[3-{[(2,6-Dichloro-4-fluorophenyl)oxy]methyl}-5-(1-methylethyl)-4-isoxazolyl]methyl}oxy)-1H-indol-1-yl]methyl}benzoic acid]: 102 to 1000 nM; `CC(C)c1onc(COc2c(Cl)cccc2Cl)c1COc1ccc2c(ccn2Cc2cccc(C(=O)O)c2)c1` [Example 15, 3-{[5-({[3-{[(2,6-Dichlorophenyl)oxy]methyl}-5-(1-methylethyl)-4-isoxazolyl]methyl}oxy)-1H-indol-1-yl]methyl}benzoic acid]: 102 to 1000 nM. `CC(C)c1onc(-c2c(Cl)cccc2Cl)c1COc1ccc2sc(-c3ccc(C(=O)O)cc3)cc2c1` [Example 16, 4-[5-({[3-(2,6-Dichlorophenyl)-5-(1-methylethyl)-4-isoxazolyl]methyl}oxy)-1-benzothien-2-yl]benzoic acid]: the EC50 was 102 to 1000 nM. As for `CC(C)c1onc(-c2c(Cl)cccc2Cl)c1COc1ccc2cc(-c3cncc(C(=O)O)c3)ccc2c1` [Example 17, 5-[6-({[3-(2,6-Dichlorophenyl)-5-(1-methylethyl)-4-isoxazolyl]methyl}oxy)-2-naphthalenyl]-3-pyridinecarboxylic acid], the EC50 is 102 to 1000 nM. As for `CC(C)c1onc(-c2c(Cl)cccc2Cl)c1COc1ccc2cc(-c3cccc(C(=O)O)n3)ccc2c1` [Example 18, 6-[6-({[3-(2,6-Dichlorophenyl)-5-(1-methylethyl)-4-isoxazolyl]methyl}oxy)-2-naphthalenyl]-2-pyridinecarboxylic acid], the figure is 102 to 1000 nM; as for `CC(C)c1onc(-c2c(Cl)cccc2Cl)c1COc1ccc2cc(-c3ccc(C(=O)O)nc3)ccc2c1` [Example 19, 5-[6-({[3-(2,6-Dichlorophenyl)-5-(1-methylethyl)-4-isoxazolyl]methyl}oxy)-2-naphthalenyl]-2-pyridinecarboxylic acid], 102 to 1000 nM. In the case of `CC(C)c1onc(-c2c(Cl)cccc2Cl)c1COc1ccc2cc(-c3ccnc(C(=O)O)c3)ccc2c1` [Example 20, 4-[6-({[3-(2,6-Dichlorophenyl)-5-(1-methylethyl)-4-isoxazolyl]methyl}oxy)-2-naphthalenyl]-2-pyridinecarboxylic acid], the EC50 is 102 to 1000 nM. `CC(C)c1onc(-c2c(Cl)cccc2Cl)c1COc1ccc2cc(-c3cc(C(=O)O)ccn3)ccc2c1` [Example 21, 2-[6-({[3-(2,6-Dichlorophenyl)-5-(1-methylethyl)-4-isoxazolyl]methyl}oxy)-2-naphthalenyl]-4-pyridinecarboxylic acid]: the EC50 is 102 to 1000 nM.

(Values after patent US20110034507A1, “FARNESOID X RECEPTOR AGONISTS” (SMITHKLINE BEECHAM CORPORATION, priority 2007, published 2011).)
